Entries after “also recorded” stand apart in the source; their conditions may differ.
How the values were obtained:
insulin receptor (IR) = insulin receptor (IR) (Homo sapiens, UniProt P06213); settings: cited from earlier work
bleomycin-treated mice = assay: bleomycin-induced lung injury and fibrosis model; type: in vivo
Procedure: ICR male mice are anesthetized under pentobarbital (60 mg/kg, i.v.) anesthesia, the cervical region is shaved and the skin is incised for about 4 mm from under the larynx region along the median line. Next, the muscle layer covering upper trachea is peeled off to expose the trachea. Using a micro-syringe, physiological saline or bleomycin hydrochloride (0.03 mg/animal, manufactured by Nippon Kayaku) is administered tracheally (50 μl/animal) from the tracheal smooth muscle region between cricoid cartilage. After the administration, the incised region is closed and antibiotics are administered into the thigh intramuscularly in order to prevent infection. IGF-1R inhibitor, e.g., antibody to IGF-1 receptor (A12). […] Controls included bleomycin-treated animals receiving saline injection in place of A12 antibody. At various time points after the induction, each animal is sacrificed by exsanguination under pentobarbital anesthesia, and lung tissue is excised to monitor for differences in lung injury in the test versus control groups. In addition, bronchoalveolar lavage is performed, with analysis of the resulting fluid for differences in total protein, cytokines, inflammatory cells and fibroblasts or in the responsiveness of such cells to, e.g., apoptotic or other stimuli. Lung hydroxyproline content is measured as a measure of fibrosis. Changes in lung tissue histology are also monitored. Further details on the processing of lung tissue for analysis include the following. At time of sacrifice, the right main stem bronchus was tied off and the left lung was isolated and lavaged with 1 ml of PBS containing 0.6 mM EDTA warmed to 37° C. Bronchoalveolar lavage fluid (BALF) total cell count was determined by trypan blue exclusion and cell differential was determined on Diff quick (Dade Behring Ag, Düdingen, Switzerland) stained cytospins. Following brief centrifugation, cell-free supernatants were used for measurement of total protein by Bio-Rad protein assay (Bio-Rad laboratories, Hercules, Calif.). […] Hydroxyproline concentration was extrapolated from a standard curve. The right lung was inflated and fixed with 4% formaldehyde at 25 cmH2O pressure for histologic evaluation.
For these experiments, the bleomycin-induced lung injury was initiated in the manner described herein above, and the A12 anti-IGF-1R antibody was used for receptor blockade. Mice treated with bleomycin were treated with a monoclonal antibody against the IGF-1 receptor (A12) or vehicle.
For statistical analyses of the data, means of more than two groups of data were compared using one-way analysis of variance (ANOVA) with Tukey's honestly significant difference (HSD) post hoc test. In some cases, Kaplan-Meier Survival Analysis was performed using JMP IN v5.1; statistical significance was determined using log rank test.

[1] = tested on: lung cells (TUNEL positive); assay: TUNEL assay on lung sections after bleomycin; type: in vivo, mice
Procedure: For TUNEL assay, tissue sections were deparaffinized using standard protocols and permeabilised with proteinase K (10 μg/ml in 10 mM Tris-HCl) for 30 mins at 37° C. Non-specific binding sites were blocked with 1 mg/ml BSA in 50 mM Tris-HCl for 10 mins at 37° C. TUNEL positive cells were detected with Fluorescein In Situ Cell Death Detection Kit (Roche). Nuclei were counterstained with DAPI. To quantitate apoptosis, at least 2 mice per timepoint were examined and a blinded observer counted number of TUNEL positive cells and DAPI positive cells in 4 independent fields/mouse. At least 500 cells were analyzed per condition.

[2] = tested on: primary normal human lung fibroblasts; assay: apoptosis assay (Cell Death Detection ELISA-plus), lung fibroblasts; type: cell-based; settings: serum starvation, increasing concentrations; listed as IGF-1R antibody
Procedure: A: Normal human lung fibroblast or distal lung epithelial cells were serum-starved overnight and then incubated with indicated concentration of IGF-1R antibody or IGFBP-3 overnight. B: A549 cells were serum-starved and incubated with IGF-1R antibody (136 μg/ml) with or without the indicated concentration of Fas ligand. Apoptosis was measured by Cell Death ELISA-plus ELISA (Roche Applied Science) per the manufacturer's directions. All experiments were done in triplicate and repeated at least twice. Apoptosis index is defined as the ratio of experimental condition OD405 nm: control (media alone) OD405 nm.
Primary normal human lung fibroblasts (Clonetics, Cambrex Bioscience, Rockland, Me.), primary distal lung human epithelial cells (Clonetics) or A549 (American Type Culture Collection, Manassas, Va.) were seeded in a 96-well tissue culture plate (2×10^4 cells/well) overnight and serum-starved for 24 hours. […] After 48 hours, apoptosis was measured. To prevent detached cells from being aspirated, plates were centrifuged at 200×g for 10 minutes, and apoptosis was measured using the Cell Death Detection ELISA-plus System (Roche Applied Science, Penzberg, Germany), which detects cytosolic histone-complexed DNA fragments. […]

fibroblasts = assay: Fas-induced apoptosis, fibroblasts; type: cell-based, human; settings: data not shown
Procedure: Primary normal human lung fibroblasts (Clonetics, Cambrex Bioscience, Rockland, Me.), primary distal lung human epithelial cells (Clonetics) or A549 (American Type Culture Collection, Manassas, Va.) were seeded in a 96-well tissue culture plate (2×10^4 cells/well) overnight and serum-starved for 24 hours. Function blocking antibody to the human type 1 IGF receptor (A12), a generous gift from ImClone Systems (New York, N.Y.) (Burtrum D, et al., Cancer Res 63:8912-8921 (2003); Wu J D, et al., Clin Cancer Res 11:3065-3074 (2005)), was added to media at indicated concentration for 24 hours. In some experiments, soluble Fas ligand (Alexis Biochemicals, Lausen, Switzerland) or IGFBP-3 (R&D Systems) was added to cells. […] After 48 hours, apoptosis was measured. To prevent detached cells from being aspirated, plates were centrifuged at 200×g for 10 minutes, and apoptosis was measured using the Cell Death Detection ELISA-plus System (Roche Applied Science, Penzberg, Germany), which detects cytosolic histone-complexed DNA fragments. […] The data are reported as the mean absorbance of triplicate wells mean+SE or as apoptosis index, defined as the ratio of the mean absorbance of triplicate wells in the experimental condition OD405 nm/control (media alone) OD405 nm.

## A12: Function blocking antibody to the human type 1 IGF receptor, gift from ImClone Systems
Insulin receptor (IR)
  cross-reaction with insulin receptor: does not cross-react
bleomycin-treated mice; 7-14 days post-bleomycin, A12 40 mg/kg i.p. vs saline
  proportion of mice surviving: significantly greater
bleomycin-treated mice; 28 days, vs saline, p=0.16
  BALF total protein concentration: trend towards decreased BALF protein concentration
bleomycin-treated mice; by d14, bleomycin-treated mice
  weight loss: 20%
bleomycin-treated mice; day 7 and day 14, vs saline
  lung hydroxyproline content (fibrosis): no significant differences
bleomycin-treated mice; day 14, vs saline
  lung histology: Only subtle histological differences; also recorded: qualitatively less fibrosis
bleomycin-treated mice; day 28, vs saline
  lung histology: Reduced evidence of fibrosis; also recorded: better preservation of lung architecture and lung size, and fewer areas of fibrosis
bleomycin-treated mice; day 28, vs saline control (p=0.03) or d14 (p=0.001)
  lung hydroxyproline content (fibrosis): significantly lower lung hydroxyproline levels; also recorded: significantly less hydroxyproline
bleomycin-treated mice; days 7 and 14, vs saline
  BALF total protein concentration: no significant difference; also recorded: no difference in BALF protein concentration
bleomycin-treated mice; n=24 per group, p=0.01 vs saline control
  survival (Kaplan-Meier): statistically significant survival benefit
bleomycin-treated mice; vs saline
  BALF differential cell count: no significant difference; also recorded: no difference in the cell differential
  BALF total cell count: no significant difference; also recorded: not statistically different
bleomycin-treated mice; vs saline control
  respiratory or systemic distress by body condition scoring: less evidence of respiratory or systemic distress
[1]; d14, vs vehicle
  TUNEL-positive (apoptotic) cells in lung: increase in TUNEL-positive cells
[1]; day 28, vs vehicle
  TUNEL-positive (apoptotic) cells in lung: fewer apoptotic cells
[2]
  apoptosis of primary human lung fibroblasts: dose-dependent increase in apoptosis; also recorded: increased apoptosis
fibroblasts
  Fas-induced apoptosis of fibroblasts: did not alter Fas-induced apoptosis

— patent US8178091B2, “Compositions and methods for the treatment of respiratory disorders” (University of Washington, priority 2007, dated 2012)
